In US10377828B2, “Combination therapy for neoplasia treatment” (Boehringer Ingelheim International GmbH, priority 2013, dated 2019):
Entries after “also recorded” stand apart in the source; their conditions may differ.

How the values were obtained:
Assay type in all cases: cell-based, human
[1] = tested on: AKT phosphorylation, PARP cleavage, p21, CDK2, Cyclin E, PCNA in VCaP cells; test: Western blot time course of AKT phosphorylation, apoptosis and cell cycle regulators
Experimental: One×10^6 and 4×10^6 cells were plated in 6-well plates and 10 cm dishes, respectively, in medium containing 10% […] and AR signaling inhibitor. […] Cell lysates were snap frozen and stored at −80° C.
(§1) Western blotting was performed loading 30-50 μg of total protein lysates on a 4-12% Bis-Tris PAG (Bio Rad) and blotting with the Bio Rad trans-Blot® Turbo system using a PVDF membrane. […] Cell cycle regulators and markers of proliferation and apoptosis were analyzed using the following antibodies: p21 Waf1/Cip1 (12D1; #2947, Cell Signaling; 1:1000), CDK2 (78B2; #2546, Cell Signaling; 1:1000), Cyclin E (C-19; sc-198, Santa Cruz; 1:1000), PCNA (#2586, Cell Signaling; 1:2000), and PARP (#9542, Cell Signaling; 1:1000).
(§2) Antibody dilutions were prepared in 5% BSA or 5% non-fat dry milk in TBS-0.5% Tween20 (TBS-T). Following washes in TBS-T membranes were incubated with a polyclonal HRP-conjugated goat anti-rabbit secondary antibody (DAKO, #P0448) for 1 hour and after further washes in TBS-T antibody reactivity was detected by means of ECL/Super ECL (GE Healthcare) and exposure on ImageQuant LAS4000. […]

VCaP cells [2] = test: Analysis of cellular doubling time; conditions: 10 μM MDV-3100, compared to untreated controls
Experimental: 3×10^5 cells/well VCaP cells were seeded in 2 mL cell culture medium per well. 24 hrs post seeding the cell culture medium was removed and replaced with DMEM+10% FCS without R1881. 24 hr following the medium change the pre-treatment wells were harvested and counted with the Beckman Coulter™ Vi-CELL XR 2.03, and 10 μM of MDV-3100 was added to the remaining cells. Four times every 24 hr VCaP cell number was determined in 3 wells for each time point. The mean value was calculated from these triplicates. To determine the generation time, following formula is used: […]

[3] = tested on: IGF-1R, AR, PTEN levels and AKT-Ser473 phosphorylation in VCaP, MDA PCa 2b and DUCaP cells; test: Western blot protein analysis after 24 hours of treatment; conditions: 24 hours treatment
Experimental: One×10^6 and 4×10^6 cells were plated in 6-well plates and 10 cm dishes, respectively, in medium containing 10% heat-inactivated FCS and after over night incubation the cells were treated with 1 μM of MDV-3100 and 100 nM of IGF mAb_1 or a combination of antibody and AR signaling inhibitor. After 24 hours the cells were lyzed on the plates, total protein was isolated and protein concentration was determined by Bradford assay. Cell lysates were snap frozen and stored at −80° C.
as §1, §2

VCaP cells [4] = test: Cell cycle analysis using flow cytometry (propidium iodide)
Experimental: 4×10^5 VCaP cells were treated with 1 μM of IGF mAb_1 and 10 μM of MDV-3100, and the combination of both agents, and incubated in 6-well plates at 37° C. for 24 h, 48 h and 72 h. Subsequently, the supernatant was transferred to FACS tubes, adherent cells were detached with trypsin and collected in the respective FACS tubes. After centrifugation, the medium was discarded and the cell pellet was fixed in ice-cold 70% ethanol for a minimum of 2 h at 4° C. After removing the ethanol entirely, fixed cells were stained with propidium iodide (10 μg/ml; Sigma; P4864-10 mL) in a hypotonic buffer solution (0.1% sodium citrate, 0.1% (v/v) triton X-100, 100 μg/ml DNase-free RNase A) and incubated in the dark at room temperature for 30 minutes. Cells were analyzed using the Becton Dickinson FACS Canto II Flow cytometer and data was evaluated with the FACS Diva software.

VCaP cells [5] = test: Thymidine incorporation assay; conditions: 96 hours, 10 μM MDV-3100 and/or 1 μM IGF mAb_1, compared to untreated controls
Experimental: VCaP cells were treated with 1 μM of IGF mAb_1 and 10 μM of MDV-3100 and the combination of both agents and incubated as triplicates in flat-bottom 96-well plates for 96 hours at a density of 5×10^4 cells per well, in the absence of R1881. For the last 24 hours of incubation, ^3H-thymidine (0.4 μCi/well; PerkinElmer, NET355001 MC) was added. Afterwards, the plates were frozen and incubated at −20° C. for 24 h. For harvesting, the plates were thawed and 40 μL Trypsin was added to each well to detach the cell fragments. The suspension was transferred to filter plates. The plates were then washed three times with distilled water and dried at 60° C. for 3 h. 25 μL per well Microscint were added and the proliferation rate was determined by measuring thymidine incorporation (CPM; counts per minute) using a liquid scintillation counter (1450 Microbeta Wallac Trilux, Perkin-Elmer).

VCaP cells [6] = test: Assessment of caspase 3 activity (apoptosis induction); conditions: 10 μM MDV-3100 and/or 1 μM mAb, up to 96 hours
Experimental: To acquire live cell images of cells undergoing caspase-3/7 mediated apoptosis upon treatment with different concentrations of MDV-3100, IGF mAb_1, and the combination of both agents, the CellPlayer™ 96-Well Kinetic Caspase-3/7 Reagent (Essen BioScience; #4440) was used. 50000 VCaP cells/100 μl/well were seeded and treated on the next day with the respective concentrations of both agents in growth medium in the absence of R1881. The Caspase-3/7 reagent was diluted to a final concentration of 5 μM in 100 μl per well of growth medium and added to the medium. The plate was placed within a microplate tray into the IncuCyte™ 2011A and 3 images per well were acquired every 4 hours for 7 days using the phase contrast and fluorescence channels.

MDA PCa 2b cells = test: 2D cell proliferation assay (CellTiter-Glo); conditions: 10% FCS-containing growth medium, 5 days, single agent or combination
Experimental: (§3) The following method was used to determine the inhibitory effect of IGF ligand-neutralizing mAbs and androgen signaling inhibitors on the growth of prostate cancer cell lines. Assays were performed in cell growth medium containing 10% serum.
(§4) Adherent cells were detached with trypsin/EDTA solution (GIBCO, #043-9031 FU), resuspended in growth medium, centrifuged, resuspended in assay medium (supplemented with 10% heat inactivated FCS and 2 mM L-glutamine) and diluted to 5,000-40,000 cells per mL. 100 μL/well cell suspension was added to each well of a sterile flat-bottom white 96-well plate (PerkinElmer, #6005280) and plates were incubated overnight in a humidified incubator set at +37° C. and 5% CO2. On the next day supernatants were aspirated and 35 μL/well assay medium was added to all wells.
(§5) Serial dilutions of IGF mAb_1 and mAb_2 (1 μM highest concentration), MDV-3100 (10 μM highest concentration), abiraterone acetate (100 μM highest concentration) were prepared on a separate plate in assay medium (no growth factors or hormones supplemented). All agents were tested as single agents or in combination. All samples were tested in triplicate wells (100 μL/well assay). Plates were incubated for 5 days in a humidified incubator at +37° C. and 5% CO2. After this incubation period, CellTiter-Glo buffer, substrate and test plates were equilibrated to RT. CellTiter-Glo is a bioluminescent assay (Promega, #G7571) designed to determine the number of viable cells in culture, in which the generation of a luminescent signal is proportional to the amount of ATP present in cells. 100 μL of freshly mixed CellTiter-Glo reagent was added to each well. After 2 min on an orbital shaker (MTS 2/4, IKA) and 10 min incubation at RT, luminescence was recorded (luminescence reader (Genios Pro, Tecan or Victor X4, Perkin Elmer), integration time 1 sec).

VCaP cells [7] = test: 2D cell proliferation assay (CellTiter-Glo); conditions: 10% FCS-containing growth medium, 5 days, single agent or combination
Experimental: as §3, §4, §5

DUCaP cells = test: 2D cell proliferation assay (CellTiter-Glo); conditions: 10% FCS-containing growth medium, 5 days, single agent or combination
Experimental: as §3, §4, §5

VCaP cells [8] = test: 3D soft agar cell proliferation assay; conditions: single agent or combination
Experimental: IGF mAb_2 was used for the treatment of VCaP cells in FIG. 2B. FIG. 2C (IGF mAb_1) and FIG. 2D (IGF mAb_2) show the results of MDA PCa 2b cells. […] In a 3D soft agar cell proliferation assay (FIG. 2G), VCaP cells were treated with abiraterone acetate and IGF mAb_2.

Structure (SMILES) | p21 levels ([1]; 10 μM MDV-3100, at 8 and 24 hours) | PARP cleavage ([1]; 10 μM MDV-3100 and/or 1 μM IGF mAb_1, 8 h, 24 h, 48 h and 72 h) | cellular doubling time (generation time) (VCaP cells [2]) | AR protein levels [3] | IGF-1R levels [3] | G1/G0 population (VCaP cells [4]; 10 μM MDV-3100, compared to untreated controls) | sub-G1 apoptotic cell population (VCaP cells [4]; 24 h, 48 h and 72 h, 10 μM MDV-3100 and/or 1 μM mAb) | reduction of proliferative activity (thymidine incorporation) (VCaP cells [5]) | induction of caspase 3 activity / apoptosis (in words) (VCaP cells [6]) | effect on 2D cell proliferation (in words) (MDA PCa 2b cells) | effect on 2D cell proliferation (in words) (VCaP cells [7]) | effect on 2D cell proliferation (in words) (DUCaP cells) | effect on 3D cell proliferation (in words) (VCaP cells [8])
CNC(=O)c1ccc(N2C(=S)N(c3ccc(C#N)c(C(F)(F)F)c3)C(=O)C2(C)C)cc1F [MDV-3100, 4-{3-[4-cyano-3-(trifluoromethyl)phenyl]-5,5-dimethyl-4-oxo-2-sulfanylideneimidazolidin-1-yl}-2-fluoro-N-methylbenzamide] | increased | did not induce | prolonged cellular doubling time | slightly increased | slightly decreased | increased | did not induce; also recorded: does not change | approximately 50% | did not induce caspase 3 activity | inhibition of cell proliferation | inhibition of cell proliferation | inhibition of cell proliferation | 
CC(=O)O[C@H]1CC[C@@]2(C)C(=CC[C@@H]3[C@@H]2CC[C@]2(C)C(c4cccnc4)=CC[C@@H]32)C1 [abiraterone acetate] |  |  |  |  |  |  |  |  |  | inhibition of cell proliferation at higher concentrations | inhibition of cell proliferation at higher concentrations | inhibition of cell proliferation at higher concentrations | inhibition of cell proliferation at higher concentrations
